Measurements from EP0200942B1, “New derivatives of an aminoketone” (NIPPON KAYAKU KABUSHIKI KAISHA, priority 1985, dated 1986).

Tests used:
[1] = Acute toxicity, LD50 in mice intravenously; settings: mouse, in vivo, iv, read-out: LD₅₀ (Mice; i.v.)
Procedure: LD₅₀ (mg/kg) of the each test compound given to mice intravenously was determined.

[2] = system: ischemic decerebrate rigidity; assay: Action to ischemic decerebrate rigidity of rat (Fukuda et al method); type: in vivo, male Wistar rat; settings: intravenous administration 3.5 mg/kg; average forepaw tension for 10 minutes at peak period after vs before administration
Excerpt: 2. Action to ischemic decerebrate rigidity of rat
The effects on the ischemic decerebrate rigidity were investigated by using Fukuda et al method (H. Fukuda, T. Ito, S. Hashimoto and Y. Kudo: Japan. J. Pharmacol., 24, 810 (1974)). The rigidity is due to hyperactivity of α-motorneurones. The rigid animals provide a good experimental model for some type of spasticity in man.
A tracheal cannula was inserted in each of male Wistar rat under ether anesthesia. Both of common carotid arteries were ligated and the basilar artery was cauterized with a bipolar coagulator to block the blood circulation and to prepare a rigidity sample. The rigidity was recorded as described below. A rat was fixed on its back on a fixing stand and its forepaws were allowed to grisp an end of a celluloid plate provided with strain gauges on both sides thereof. A change of the resistance observed when the celluloid plate was forced up by the rigidity of the forepaws was recorded as a tension through a bridge circuit on a self-balancing recorder. A rigidity inhibition rate was calculated according to the following equation: [formula] when C represents an average tension (g) for 10 minutes at peak period before the administration of a test compound and D represents an average tension (g) for 10 minutes at peak period recorded after the intravenous administration 3.5 mg/kg of a test compound.

[3] = system: Spinal reflex (flexor reflex); assay: Spinal reflex (flexor reflex) inhibitory action, evoked electromyogram in anesthetized rats; type: in vivo, male rats; Wistar strain; settings: intravenous (i.v.) administration of 5 mg/kg in physiological saline; average amplitude over 30 minutes after vs 10 minutes before administration; rats anesthetized with urethane and α-chloralose
Procedure: 1. Spinal reflex (flexor reflex) inhibitory action
Animals (male rats; Wistar strain) were anesthetized with urethane and α-chloralose, and their tibial nerve was dissected, and stimulated (0.1 msec, 0.1 Hz, ultra-maximum stimulation) by the stimulator (Model MSE-3; Nippon Koden). […] The amplitude of this evoked electromyogram was recorded on a pen recorder through a peak holder.The activity of the compounds was expressed by flexor reflex inhibition rate. That is, the flexor reflex inhibition rate was calculated from the following equation (A): [formula] wherein A is the average amplitude of the electromyogram in the period of 10 minuts before the administration of the test compound, and B is the average amplitude of the electromyogram in the period of 30 minutes after the intravenous (i.v.) administration of 5 mg/kg of the test compound dissolved in a physiological saline solution.

SMILES | LD50 [1] [mg/kg] | Inhibition rate (%) (rigidity inhibition rate) [2] | Inhibition rate (%) (flexor reflex inhibition rate) [3]
CCC(CN1CCCC1)C(=O)c1ccc(OC)c2c1CCCC2 (stereo not drawn) [2-11, 1-(4-Methoxy-5,6,7,8-tetrahydro-1-naphthyl)-2-ethyl-3-pyrrolidino-1-propanone] | 35.4 | 53.9 | 50.0
CC(CN1CCCC1)C(=O)c1ccc(C(F)(F)F)cc1 (stereo not drawn) [4-1, 1-(4-Trifluoromethylphenyl)-2-methyl-3-pyrrolidino-1-propanone] | 61.1 | 23.6 | 40.3
COc1ccc(C(=O)C(C)CN2CCCC2)c2c1CCCC2 (stereo not drawn) [2-1, 1-(4-Methoxy-5,6,7,8-tetrahydro-1-naphthyl)-2-methyl-3-pyrrolidino-1-propanone] | 38.1 | 46.1 | 53.6
